25 molecules from patent publication US5001156A, “Lipophilic quaternary ammonium salicylates, their use in cosmetics and in dermopharmacy” (priority 1986, dated 1991) can be followed below.

Where only a bound is given, the exact number is not on record here.

The experiment deals with Propionibacterium acnes strain ATCC 6919. As to the kind of experiment: Minimal Inhibitory Concentration (MIC) by the dilution method.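 Further: MIC reported in µg/ml.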 Conditions: Propionibacterium acnes ATCC 6919, DMSO. The experiment is classed as cell-based.
For “N-dodecyl-N-methylmorpholinium 5-decanoylsalicylate [Compound 21]”, the MIC was 9 µg/mL.
To “trimethyl-(β-hydroxyethyl)ammonium 5-dodecanoylsalicylate [Compound 18]” belongs 4.8 µg/mL; to “N-methyl-N-octylpiperidinium 5-dodecanoylsalicylate [Compound 22]”, 4.9 µg/mL.
With `CCCCCCCCCCCC(=O)c1ccc(O)c(C(=O)[O-])c1.C[N+](C)(C)C` [Compound 15, N,N,N,N-tetramethylammonium 5-dodecanoylsalicylate] the figure was 2.5 µg/mL.
With `CCCCCCCCCCCC(=O)c1ccc(O)c(C(=O)[O-])c1.CCCCCCCCCCCCCCCC[N+]12CCN(CC1)CC2` [Compound 23, 1'-azonia-4'-azabicyclo[2.2.2]octylhexadecane 5-dodecanoylsalicylate] the figure was 1.5 µg/mL; with “N-benzyl-N,N-dimethyl-N-hexadecylammonium 5-decanoylsalicylate [Compound 11]”, 1.5 µg/mL.
Regarding “N-benzyl-N,N-dimethyl-N-hexadecylammonium 5-dodecanoylsalicylate [Compound 12]”, the MIC turned out to be 1 µg/mL.
With “dimethylethyldodecylammonium 5-decanoylsalicylate [Compound 16]” the figure was 6.2 µg/mL; with `CC(C)(C)CC(C)(C)c1ccc(OCCOCC[N+](C)(C)Cc2ccccc2)cc1.CCCCCCCC(=O)c1ccc(O)c(C(=O)[O-])c1` [Compound 24, benzethonium 5-octanoylsalicylate], 1.2 µg/mL.
Consider “N-hexadecyl-N-methylimidazolinium 5-dodecanoylsalicylate [Compound 20]”, for which the MIC was determined as 13.5 µg/mL.
Take “N-benzyl-N,N-dimethyl-N-hexadecylammonium 5-octanoylsalicylate [Compound 10]”: the MIC came out at 0.54 µg/mL. Compared with the last molecule, the MIC is about 25-fold lower.
With “N-benzyl-N,N,N-trimethylammonium 5-decanoylsalicylate [Compound 13]” the figure was 3.2 µg/mL; with “N-Hexadecyl-N,N,N-trimethylammonium salicylate [Compound 1, reference compound]”, 21 µg/mL.
In the case of “Hexadecyltrimethylammonium stearate [Compound 3, reference compound]”, the MIC stood at 25 µg/mL. The MIC values of the last two molecules are within 1.5-fold of each other.
To “N-hexadecyl-N,N,N-trimethylammonium 5-octanoylsalicylate [Compound 4]” belongs 8 µg/mL; to `CC(C)(C)CC(C)(C)c1ccc(OCCOCC[N+](C)(C)Cc2ccccc2)cc1.CCCCCCCCCCCC(=O)c1ccc([O-])c(C(=O)O)c1` [Compound 25, benzethonium 5-dodecanoylsalicylate], 2 µg/mL; to “N-hexadecyl-N,N-dimethyl-N-(β-hydroxyethyl)ammonium 5-decanoylsalicylate [Compound 14]”, 3.6 µg/mL.
To “N-hexadecylpyridinium 5-octanoylsalicylate monohydrate [Compound 7]” belongs 2.4 µg/mL.
With “N-hexadecyl-N,N,N-trimethylammonium 5-decanoylsalicylate [Compound 5]” the figure was 2.3 µg/mL.
“Hexadecyltrimethylammonium laurate [Compound 2, reference compound]”: the MIC was found to be 26 µg/mL.
To “trimethyl-(β-hydroxyethyl)ammonium 5-decanoylsalicylate [Compound 17]” belongs 11 µg/mL; to “N-(2-Hydroxyethyl)-N,N,N-trimethylammonium salicylate [Compound 19, reference compound]”, > 100 µg/mL.
With “N-hexadecyl-N,N,N-trimethylammonium 5-dodecanoylsalicylate [Compound 6]” the figure was 3.2 µg/mL; with “N-hexadecylpyridinium 5-decanoylsalicylate sesquihydrate [Compound 8]”, 1.2 µg/mL; with “N-hexadecylpyridinium 5-dodecanoylsalicylate hydrate [Compound 9]”, 1.2 µg/mL.

The term MIC denotes the smallest concentration in the dilution series that meets the test's criterion for growth inhibition.
